Experimental data published in patent US7067508B2, “Diaminedithiol derivatives and radiorhenium or radiotechnetium complex thereof; a liver cancer-treating composition comprising the radiorhenium complex and lipiodol; and a kit for preparation of the liver cancer-treating composition” (Seoul National University Industry Foundation, priority 2001, dated 2006).

Test: Biodistribution of 188Re-labelled compounds in lipiodol solution in mice after tail vein injection
Assay type: in vivo
Settings: mice (ICR)
Method: To the ^188Re-labelled reaction mixture prepared in the foregoing Examples 4 to 6, lipiodol (5 ml) was added, mixed well and the solution was centrifuged at 3000 rpm for 10 min. The supernatant was removed and 2 ml saline was added. After mixing well, the resulting solution was centrifuged again at 3000 rpm for 10 min and the supernatant was removed to recover a lower phase of lipiodol.
Mice (ICR) were administered with an injection of ^188Re-labelled compound in lipiodol solution which was prepared in the Example 7 via the tail vein. Radioactivity distributed in tissues and weight of each tissue were measured to calculate the percentage of radioactivity per gram of unit tissue relative to total radioactivity administered.
As radiation accumulation mechanism in the lung and the liver cancer are similar, it is convenient to detect the level of radiation accumulating in the lung of a mouse suffering from liver cancer. […] Therefore, it can be inferred that a radiorhenium complex of a diaminedithiol derivative having a long side chain is effective for treating liver cancer.

With `CCCCCCCCCCCC[N+]12CC[N]3CC(C)(C)[S][188Re-]31(=[O])[S]C(C)(C)C2` (stereo not shown) [^188Re-DTDD] the “Biodistribution, radioactivity in Blood” value (10 min post-injection) was 13.0 ± 0.6 percentage of radioactivity per gram, the “Biodistribution, radioactivity in Fat” value (10 min post-injection) was 5.5 ± 0.4 percentage of radioactivity per gram and the “Biodistribution, radioactivity in Heart” value (10 min post-injection) was 9.1 ± 2.3 percentage of radioactivity per gram. The “Biodistribution, radioactivity in Kidney” value (10 min post-injection) was 9.9 ± 0.7 percentage of radioactivity per gram, the “Biodistribution, radioactivity in Liver” value (10 min post-injection) was 14.9 ± 0.7 percentage of radioactivity per gram and the “Biodistribution, radioactivity in Lung” value (10 min post-injection) was 137.4 ± 13.1 percentage of radioactivity per gram. The “Biodistribution, radioactivity in Muscle” value (10 min post-injection) was 2.4 ± 0.1 percentage of radioactivity per gram, the “Biodistribution, radioactivity in Small intestine” value (10 min post-injection) was 4.8 ± 0.3 percentage of radioactivity per gram and the “Biodistribution, radioactivity in Spleen” value (10 min post-injection) was 5.6 ± 0.3 percentage of radioactivity per gram. The “Biodistribution, radioactivity in Stomach” value (shortened to “Biodistribution … in Stomach”) (10 min post-injection) was 18.3 ± 4.4 percentage of radioactivity per gram, the “Biodistribution, radioactivity in Blood” value (30 min post-injection) was 9.5 ± 1.1 percentage of radioactivity per gram and the “Biodistribution, radioactivity in Fat” value (30 min post-injection) was 4.4 ± 0.8 percentage of radioactivity per gram. For the same molecule, the “Biodistribution, radioactivity in Heart” value (30 min post-injection) was 5.0 ± 0.9 percentage of radioactivity per gram, the “Biodistribution, radioactivity in Kidney” value (30 min post-injection) was 7.4 ± 0.5 percentage of radioactivity per gram and the “Biodistribution, radioactivity in Liver” value (30 min post-injection) was 14.6 ± 2.2 percentage of radioactivity per gram. For the same molecule, the “Biodistribution, radioactivity in Lung” value (30 min post-injection) was 85.1 ± 7.1 percentage of radioactivity per gram, the “Biodistribution, radioactivity in Muscle” value (30 min post-injection) was 2.0 ± 0.2 percentage of radioactivity per gram and the “Biodistribution, radioactivity in Small intestine” value (30 min post-injection) was 8.3 ± 0.7 percentage of radioactivity per gram. The “Biodistribution, radioactivity in Spleen” value (30 min post-injection) was 4.8 ± 0.4 percentage of radioactivity per gram, the “Biodistribution … in Stomach” value (30 min post-injection) was 36.0 ± 5.9 percentage of radioactivity per gram and the “Biodistribution, radioactivity in Blood” value (1 hr post-injection) was 7.0 ± 0.8 percentage of radioactivity per gram. The “Biodistribution, radioactivity in Fat” value (1 hr post-injection) was 4.1 ± 0.6 percentage of radioactivity per gram, the “Biodistribution, radioactivity in Heart” value (1 hr post-injection) was 5.5 ± 0.4 percentage of radioactivity per gram and the “Biodistribution, radioactivity in Kidney” value (1 hr post-injection) was 6.2 ± 0.7 percentage of radioactivity per gram. The “Biodistribution, radioactivity in Liver” value (1 hr post-injection) was 13.2 ± 2.8 percentage of radioactivity per gram, the “Biodistribution, radioactivity in Lung” value (1 hr post-injection) was 82.2 ± 15.1 percentage of radioactivity per gram and the “Biodistribution, radioactivity in Muscle” value (1 hr post-injection) was 1.5 ± 0.3 percentage of radioactivity per gram. The “Biodistribution, radioactivity in Small intestine” value (1 hr post-injection) was 9.7 ± 1.2 percentage of radioactivity per gram, the “Biodistribution, radioactivity in Spleen” value (1 hr post-injection) was 3.5 ± 0.5 percentage of radioactivity per gram and the “Biodistribution … in Stomach” value (1 hr post-injection) was 49.2 ± 7.0 percentage of radioactivity per gram. For the same molecule, the “Biodistribution, radioactivity in Blood” value (3 hr post-injection) was 5.1 ± 1.2 percentage of radioactivity per gram, the “Biodistribution, radioactivity in Fat” value (3 hr post-injection) was 2.4 ± 0.4 percentage of radioactivity per gram and the “Biodistribution, radioactivity in Heart” value (3 hr post-injection) was 2.7 ± 0.7 percentage of radioactivity per gram. For the same molecule, the “Biodistribution, radioactivity in Kidney” value (3 hr post-injection) was 5.2 ± 0.7 percentage of radioactivity per gram, the “Biodistribution, radioactivity in Liver” value (3 hr post-injection) was 7.7 ± 0.6 percentage of radioactivity per gram and the “Biodistribution, radioactivity in Lung” value (3 hr post-injection) was 61.9 ± 10.3 percentage of radioactivity per gram. For the same molecule, the “Biodistribution, radioactivity in Muscle” value (3 hr post-injection) was 1.0 ± 0.2 percentage of radioactivity per gram, the “Biodistribution, radioactivity in Small intestine” value (3 hr post-injection) was 11.6 ± 0.3 percentage of radioactivity per gram and the “Biodistribution, radioactivity in Spleen” value (3 hr post-injection) was 2.9 ± 0.6 percentage of radioactivity per gram. For the same molecule, the “Biodistribution … in Stomach” value (3 hr post-injection) was 37.7 ± 12.3 percentage of radioactivity per gram, the “Biodistribution, radioactivity in Blood” value (24 hr post-injection) was 0.6 ± 0.2 percentage of radioactivity per gram and the “Biodistribution, radioactivity in Fat” value (24 hr post-injection) was 0.6 ± 0.2 percentage of radioactivity per gram. The “Biodistribution, radioactivity in Heart” value (24 hr post-injection) was 1.5 ± 0.3 percentage of radioactivity per gram, the “Biodistribution, radioactivity in Kidney” value (24 hr post-injection) was 1.9 ± 0.3 percentage of radioactivity per gram and the “Biodistribution, radioactivity in Liver” value (24 hr post-injection) was 3.3 ± 1.1 percentage of radioactivity per gram. For the same molecule, the “Biodistribution, radioactivity in Lung” value (24 hr post-injection) was 47.2 ± 9.2 percentage of radioactivity per gram, the “Biodistribution, radioactivity in Muscle” value (24 hr post-injection) was 0.3 ± 0.0 percentage of radioactivity per gram and the “Biodistribution, radioactivity in Small intestine” value (24 hr post-injection) was 9.2 ± 6.9 percentage of radioactivity per gram. The “Biodistribution, radioactivity in Spleen” value (24 hr post-injection) was 3.3 ± 1.0 percentage of radioactivity per gram and the “Biodistribution … in Stomach” value (24 hr post-injection) was 5.4 ± 1.6 percentage of radioactivity per gram.

For `CCCCCCCC[N+]12CC[N]3CC(C)(C)[S][188Re-]31(=[O])[S]C(C)(C)C2` (stereo not shown) [^188Re-OTDD], the “Biodistribution, radioactivity in Blood” value (10 min post-injection) was 5.2 ± 1.8 percentage of radioactivity per gram, the “Biodistribution, radioactivity in Fat” value (10 min post-injection) was 3.6 ± 0.7 percentage of radioactivity per gram and the “Biodistribution, radioactivity in Heart” value (10 min post-injection) was 6.3 ± 1.7 percentage of radioactivity per gram. For the same molecule, the “Biodistribution, radioactivity in Kidney” value (10 min post-injection) was 8.0 ± 1.2 percentage of radioactivity per gram, the “Biodistribution, radioactivity in Liver” value (10 min post-injection) was 15.1 ± 2.4 percentage of radioactivity per gram and the “Biodistribution, radioactivity in Lung” value (10 min post-injection) was 138.4 ± 19.8 percentage of radioactivity per gram. The “Biodistribution, radioactivity in Muscle” value (10 min post-injection) was 1.5 ± 0.2 percentage of radioactivity per gram, the “Biodistribution, radioactivity in Small intestine” value (10 min post-injection) was 3.6 ± 0.3 percentage of radioactivity per gram and the “Biodistribution, radioactivity in Spleen” value (10 min post-injection) was 2.6 ± 0.3 percentage of radioactivity per gram. For the same molecule, the “Biodistribution … in Stomach” value (10 min post-injection) was 3.5 ± 1.3 percentage of radioactivity per gram, the “Biodistribution, radioactivity in Blood” value (30 min post-injection) was 3.8 ± 0.4 percentage of radioactivity per gram and the “Biodistribution, radioactivity in Fat” value (30 min post-injection) was 2.2 ± 0.2 percentage of radioactivity per gram. The “Biodistribution, radioactivity in Heart” value (30 min post-injection) was 4.4 ± 0.3 percentage of radioactivity per gram, the “Biodistribution, radioactivity in Kidney” value (30 min post-injection) was 6.6 ± 0.3 percentage of radioactivity per gram and the “Biodistribution, radioactivity in Liver” value (30 min post-injection) was 21.6 ± 4.9 percentage of radioactivity per gram. The “Biodistribution, radioactivity in Lung” value (30 min post-injection) was 97.4 ± 20.7 percentage of radioactivity per gram, the “Biodistribution, radioactivity in Muscle” value (30 min post-injection) was 1.2 ± 0.2 percentage of radioactivity per gram and the “Biodistribution, radioactivity in Small intestine” value (30 min post-injection) was 8.0 ± 2.0 percentage of radioactivity per gram. The “Biodistribution, radioactivity in Spleen” value (30 min post-injection) was 2.3 ± 0.1 percentage of radioactivity per gram, the “Biodistribution … in Stomach” value (30 min post-injection) was 12.9 ± 6.6 percentage of radioactivity per gram and the “Biodistribution, radioactivity in Blood” value (1 hr post-injection) was 3.1 ± 0.5 percentage of radioactivity per gram. The “Biodistribution, radioactivity in Fat” value (1 hr post-injection) was 1.6 ± 0.4 percentage of radioactivity per gram, the “Biodistribution, radioactivity in Heart” value (1 hr post-injection) was 2.7 ± 1.0 percentage of radioactivity per gram and the “Biodistribution, radioactivity in Kidney” value (1 hr post-injection) was 5.6 ± 0.9 percentage of radioactivity per gram. For the same molecule, the “Biodistribution, radioactivity in Liver” value (1 hr post-injection) was 20.1 ± 3.3 percentage of radioactivity per gram, the “Biodistribution, radioactivity in Lung” value (1 hr post-injection) was 87.0 ± 13.2 percentage of radioactivity per gram and the “Biodistribution, radioactivity in Muscle” value (1 hr post-injection) was 0.9 ± 0.2 percentage of radioactivity per gram. For the same molecule, the “Biodistribution, radioactivity in Small intestine” value (1 hr post-injection) was 13.0 ± 3.7 percentage of radioactivity per gram, the “Biodistribution, radioactivity in Spleen” value (1 hr post-injection) was 1.9 ± 0.6 percentage of radioactivity per gram and the “Biodistribution … in Stomach” value (1 hr post-injection) was 11.1 ± 3.1 percentage of radioactivity per gram. The “Biodistribution, radioactivity in Blood” value (3 hr post-injection) was 2.8 ± 0.3 percentage of radioactivity per gram, the “Biodistribution, radioactivity in Fat” value (3 hr post-injection) was 1.3 ± 0.4 percentage of radioactivity per gram and the “Biodistribution, radioactivity in Heart” value (3 hr post-injection) was 1.9 ± 0.4 percentage of radioactivity per gram. For the same molecule, the “Biodistribution, radioactivity in Kidney” value (3 hr post-injection) was 4.0 ± 0.5 percentage of radioactivity per gram, the “Biodistribution, radioactivity in Liver” value (3 hr post-injection) was 19.7 ± 6.7 percentage of radioactivity per gram and the “Biodistribution, radioactivity in Lung” value (3 hr post-injection) was 61.6 ± 10.0 percentage of radioactivity per gram. The “Biodistribution, radioactivity in Muscle” value (3 hr post-injection) was 0.5 ± 0.1 percentage of radioactivity per gram, the “Biodistribution, radioactivity in Small intestine” value (3 hr post-injection) was 23.4 ± 0.3 percentage of radioactivity per gram and the “Biodistribution, radioactivity in Spleen” value (3 hr post-injection) was 1.8 ± 0.3 percentage of radioactivity per gram. The “Biodistribution … in Stomach” value (3 hr post-injection) was 15.5 ± 6.6 percentage of radioactivity per gram, the “Biodistribution, radioactivity in Blood” value (24 hr post-injection) was 0.6 ± 0.0 percentage of radioactivity per gram and the “Biodistribution, radioactivity in Fat” value (24 hr post-injection) was 0.4 ± 0.1 percentage of radioactivity per gram. For the same molecule, the “Biodistribution, radioactivity in Heart” value (24 hr post-injection) was 0.7 ± 0.1 percentage of radioactivity per gram, the “Biodistribution, radioactivity in Kidney” value (24 hr post-injection) was 1.5 ± 0.4 percentage of radioactivity per gram and the “Biodistribution, radioactivity in Liver” value (24 hr post-injection) was 7.3 ± 1.5 percentage of radioactivity per gram. The “Biodistribution, radioactivity in Lung” value (24 hr post-injection) was 22.8 ± 3.3 percentage of radioactivity per gram, the “Biodistribution, radioactivity in Muscle” value (24 hr post-injection) was 0.2 ± 0.0 percentage of radioactivity per gram and the “Biodistribution, radioactivity in Small intestine” value (24 hr post-injection) was 19.8 ± 12.0 percentage of radioactivity per gram. The “Biodistribution, radioactivity in Spleen” value (24 hr post-injection) was 2.0 ± 2.0 percentage of radioactivity per gram and the “Biodistribution … in Stomach” value (24 hr post-injection) was 3.6 ± 1.8 percentage of radioactivity per gram.
